In this test the test system is monoclonal antibody MAB 1 and MAB 2. The test is described as follows: ELISA determination of the cross-reaction of vitamin B12 derivatives with the monoclonal antibodies. The class given is binding, mice. The conditions noted are these: for cross-reactivity: monoclonal antibodies according to the invention (e.g. from cell lines ECACC 88101301 and ECACC 88101302), stated in description; for cross-reaction: values identical for MAB 1 and MAB 2, antigen added at 50, 500, 5000 μg/ml, calculated from concentrations giving 50% of max. signal. On the procedure: The plates are re-treated for 10 minutes with 0.9% sodium chloride solution and 1% albumin solution. Subsequently they are washed with 0.9% sodium chloride solution.
Afterwards they are incubated at 37° C. for one hour with 100 μl sample and washed again with 0.9% sodium chloride solution. In order to test the cross-reaction 50, 500 and 5000 μg/ml of the vitamin B12 derivative to be tested is added to the sample solution. A reduction of the measured signal in the presence of the derivative indicates a cross-reaction. A further incubation follows (1 hour, 37° C.) with 450 U/ml of a sheep-Fab-anti-mouse Fcγ peroxidase conjugate. After washing once again with 0.9% sodium chloride the peroxidase activity is determined in the usual way (for example with 2,2'azino-di-[3-ethylbenzthiazoline sulphonate (6)] (ABTS®), 30 minutes at room temperature, the difference in absorbance ΔmA is read at 422 nm).
The antigen to be tested for cross-reaction is added in increasing concentrations (50 μg/ml, 500 μg/ml, 5000 μg/ml) to the monoclonal antibody. Afterwards the cross-reaction is calculated from the following formula: [formula]

Results on five compounds are retold here after US5451508A, “Method and monoclonal antibodies for vitamin B12 determination” (Boehringer Mannheim GmbH, priority 1989, dated 1995).

Consider “(carboxy(2-cyanamino-4,5-dimethylphenyl)-amino)-cobamide”, for which the cross-reactivity was determined as 0.07% and the cross-reaction was 0.07.

Consider Purinylcobinamide, for which the cross-reactivity was determined as 1.1% and the cross-reaction is on record as 1.1.

Take `C/C1=C2/[N-][C@H]([C@H](CC(N)=O)[C@@]2(C)CCC(=O)NC[C@@H](C)OP(=O)([O-])O[C@H]2[C@@H](O)[C@@H](n3cnc4cc(C)c(C)cc43)O[C@@H]2CO)[C@]2(C)N=C(/C(C)=C3N=C(/C=C4N=C1[C@@H](CCC(N)=O)C\4(C)C)[C@@H](CCC(N)=O)[C@]\3(C)CC(N)=O)[C@@H](CCC(N)=O)[C@]2(C)CC(N)=O.[CH3-].[Co+3]` [Methylcobalamin]: the cross-reactivity came to 100% and the cross-reaction was 100.

Take “2-hydroxy-5,6-dimethylbenzimidazolyl-cobamide”: the cross-reactivity came to 1.5% and the cross-reaction is 1.5.

For the compound Cobyrinic acid-diamide, the cross-reactivity is less than 0.05% and the cross-reaction is less than 0.05.
